US20040076673A1, “Oral pharmaceutical composition containing a block copolymer” (priority 2000, published 2004)
≈ marks a conversion by molar mass, not a printed value.

How the values were obtained:
Solubility Measurements = assay type: physicochemical
[1] = pH shift dissolution method (0.1N HCl, then shift to pH 6.5); assay type: physicochemical; settings: in vitro tests; with block copolymers versus without
Description: pH Shift Dissolution Method
The formulations were weighed into hard gelatin capsules (equivalent to 25 mg drug) and dissoluted in 500 ml 0.1N HCl for one hour at 37° C. (paddle speed 100 rpm). A 5 ml sample was taken at 55 minutes and the media replaced. After one hour 10 ml of a 2.5M KH2PO4/16.72% (w/v) NaOH solution was added to the HCl to shift the pH to 6.5. 5 ml samples were then removed with a plastic syringe at 5, 15, 30, 45 and 60 minutes and media replaced after every sampling time point. Each sample was centrifuged (14,000 rpm) at ambient temperature for 15 minutes and then analysed by HPLC using the following conditions: […]

O=C(c1ccc(-c2ccncc2)cc1)N1CCN(S(=O)(=O)c2ccc3cc(Cl)ccc3c2)CC1 [Compound 1, 1-(6-chloronaphth-2-ylsulfonyl)-4-[4-(4-pyridyl)benzoyl] piperazine]
solubility (Solubility Measurements; pH 1.2, simulated gastric fluid): 250 µg/mL (≈ 508 µM)
solubility (Solubility Measurements; pH 6.8, aqueous buffer): 2 µg/mL (≈ 4.07 µM)
solubility (Solubility Measurements; water): < 5 µg/mL
improvement of maximum supersaturated concentration by use of the polymers [1]: 4-10 times
